Test results from patent US20240197680A1, “VORUCICLIB DOSING REGIMENS AND METHODS OF TREATMENT INCLUDING THE SAME” (MEI Pharma, Inc., priority 2021, published 2024).
Like-named read-outs stand apart in the source and are kept apart here.

Experiments:
Format in all cases: physicochemical
[1] = Stability of voruciclib malonate Batch 02MEI06-01-107; set-up: key to Organic Impurities by HPLC: RRT 1.05: —: below reporting threshold
Excerpt: The formulation contains colloidal silicon dioxide. The manufacturing process for this batch was similar to that described in Example 10. Stability study samples were packaged in the containers described in Example 9.

Gelling in aqueous media = settings: in water or aqueous buffers across the pH range
Experimental: Voruciclib can form a gel when dissolved in various media, depending on the other chemicals present. […] In general, voruciclib was more prone to gel at suspension concentrations >5 mg/mL and solubilities >0.5 mg/mL.

[2] = Hygroscopicity of voruciclib malonate
[3] = pH range solubility in biorelevant media
Experimental: In general, voruciclib was more prone to gel at suspension concentrations >5 mg/mL and solubilities >0.5 mg/mL.

[4] = pKa of voruciclib malonate

- changes observed after storage ([1]; 6-months at 25° C./60% RH or 6-months at 40° C./75% RH): No significant changes
- Appearance by visual inspection ([1]; 25° C./60% RH, 1 months): Light
- Assay by HPLC (% w/w, as is) ([1]; 25° C./60% RH, 1 months): 96.8 % w/w
- Organic Impurities by HPLC: RRT 0.83 ([1]; 25° C./60% RH, 1 months): 0.06 % area
- Organic Impurities by HPLC: RRT 0.97 ([1]; 25° C./60% RH, 1 months): 0.55 % area
- Organic Impurities by HPLC: RRT 0.99 ([1]; 25° C./60% RH, 1 months): 0.59 % area
- Organic Impurities by HPLC: RRT 1.05 ([1]; 25° C./60% RH, 1 months): 0.09 % area
- Organic Impurities by HPLC: RRT 1.06 ([1]; 25° C./60% RH, 1 months): 0.08 % area
- Purity by HPLC ([1]; 25° C./60% RH, 1 months): 98.6 % area
- Total Impurities ([1]; 25° C./60% RH, 1 months): 1.38 % area
- Water Content by KF ([1]; 25° C./60% RH, 1 months): 0.47 % w/w
- XRPD ([1]; 25° C./60% RH, 1 months): Crystalline
- Appearance by visual inspection ([1]; 25° C./60% RH, 3 months): Light
- Assay by HPLC (% w/w, as is) ([1]; 25° C./60% RH, 3 months): 97.3 % w/w
- Organic Impurities by HPLC: RRT 0.83 ([1]; 25° C./60% RH, 3 months): 0.06 % area
- Organic Impurities by HPLC: RRT 0.97 ([1]; 25° C./60% RH, 3 months): 0.56 % area
- Organic Impurities by HPLC: RRT 0.99 ([1]; 25° C./60% RH, 3 months): 0.59 % area
- Organic Impurities by HPLC: RRT 1.05 ([1]; 25° C./60% RH, 3 months): 0.06 % area
- Organic Impurities by HPLC: RRT 1.06 ([1]; 25° C./60% RH, 3 months): 0.08 % area
- Purity by HPLC ([1]; 25° C./60% RH, 3 months): 98.7 % area
- Total Impurities ([1]; 25° C./60% RH, 3 months): 1.36 % area
- Water Content by KF ([1]; 25° C./60% RH, 3 months): 0.18 % w/w
- XRPD ([1]; 25° C./60% RH, 3 months): Crystalline
- Appearance by visual inspection ([1]; 25° C./60% RH, 6 months): Light
- Assay by HPLC (% w/w, as is) ([1]; 25° C./60% RH, 6 months): 97.7 % w/w
- Organic Impurities by HPLC: RRT 0.83 ([1]; 25° C./60% RH, 6 months): 0.05 % area
- Organic Impurities by HPLC: RRT 0.97 ([1]; 25° C./60% RH, 6 months): 0.52 % area
- Organic Impurities by HPLC: RRT 0.99 ([1]; 25° C./60% RH, 6 months): 0.58 % area
- Organic Impurities by HPLC: RRT 1.05 ([1]; 25° C./60% RH, 6 months): 0.05 % area
- Organic Impurities by HPLC: RRT 1.06 ([1]; 25° C./60% RH, 6 months): 0.08 % area
- Purity by HPLC ([1]; 25° C./60% RH, 6 months): 98.7 % area
- Total Impurities ([1]; 25° C./60% RH, 6 months): 1.32 % area
- Water Content by KF ([1]; 25° C./60% RH, 6 months): 0.36 % w/w
- XRPD ([1]; 25° C./60% RH, 6 months): Crystalline
- Appearance by visual inspection ([1]; 25° C./60% RH, Initial): Pale
- Assay by HPLC (% w/w, as is) ([1]; 25° C./60% RH, Initial): 96.9 % w/w
- Organic Impurities by HPLC: RRT 0.83 ([1]; 25° C./60% RH, Initial): 0.06 % area
- Organic Impurities by HPLC: RRT 0.97 ([1]; 25° C./60% RH, Initial): 0.55 % area
- Organic Impurities by HPLC: RRT 0.99 ([1]; 25° C./60% RH, Initial): 0.62 % area
- Organic Impurities by HPLC: RRT 1.05 ([1]; 25° C./60% RH, Initial): 0.15 % area
- Organic Impurities by HPLC: RRT 1.06 ([1]; 25° C./60% RH, Initial): 0.11 % area
- Purity by HPLC ([1]; 25° C./60% RH, Initial): 98.5 % area
- Total Impurities ([1]; 25° C./60% RH, Initial): 1.53 % area
- Water Content by KF ([1]; 25° C./60% RH, Initial): 0.56 % w/w
- XRPD ([1]; 25° C./60% RH, Initial): Crystalline
- Appearance ([1]; 40° C./75% RH, 1 months): Light
- Assay by HPLC (% w/w. as is) ([1]; 40° C./75% RH, 1 months): 96.4 % w/w
- Organic Impurities by HPLC: RRT 0.83 ([1]; 40° C./75% RH, 1 months): 0.06 % Area
- Organic Impurities by HPLC: RRT 0.97 ([1]; 40° C./75% RH, 1 months): 0.56 % Area
- Organic Impurities by HPLC: RRT 0.99 ([1]; 40° C./75% RH, 1 months): 0.58 % Area
- Organic Impurities by HPLC: RRT 1.05 ([1]; 40° C./75% RH, 1 months): 0.06 % Area
- Organic Impurities by HPLC: RRT 1.06 ([1]; 40° C./75% RH, 1 months): 0.08 % Area
- Purity by HPLC ([1]; 40° C./75% RH, 1 months): 98.7 % area
- Total Impurities ([1]; 40° C./75% RH, 1 months): 1.33 % area
- Water Content by KF ([1]; 40° C./75% RH, 1 months): 0.44 % w/w
- XRPD ([1]; 40° C./75% RH, 1 months): Crystalline
- Appearance ([1]; 40° C./75% RH, 3 months): Light
- Assay by HPLC (% w/w. as is) ([1]; 40° C./75% RH, 3 months): 97.3 % w/w
- Organic Impurities by HPLC: RRT 0.83 ([1]; 40° C./75% RH, 3 months): 0.06 % Area
- Organic Impurities by HPLC: RRT 0.97 ([1]; 40° C./75% RH, 3 months): 0.56 % Area
- Organic Impurities by HPLC: RRT 0.99 ([1]; 40° C./75% RH, 3 months): 0.59 % Area
- Organic Impurities by HPLC: RRT 1.05 ([1]; 40° C./75% RH, 3 months): —
- Organic Impurities by HPLC: RRT 1.06 ([1]; 40° C./75% RH, 3 months): 0.08 % Area
- Purity by HPLC ([1]; 40° C./75% RH, 3 months): 98.7 % area
- Total Impurities ([1]; 40° C./75% RH, 3 months): 1.29 % area
- Water Content by KF ([1]; 40° C./75% RH, 3 months): 0.14 % w/w
- XRPD ([1]; 40° C./75% RH, 3 months): Crystalline
- Appearance ([1]; 40° C./75% RH, 6 months): Light
- Assay by HPLC (% w/w. as is) ([1]; 40° C./75% RH, 6 months): 97.5 % w/w
- Organic Impurities by HPLC: RRT 0.83 ([1]; 40° C./75% RH, 6 months): 0.05 % Area
- Organic Impurities by HPLC: RRT 0.97 ([1]; 40° C./75% RH, 6 months): 0.52 % Area
- Organic Impurities by HPLC: RRT 0.99 ([1]; 40° C./75% RH, 6 months): 0.58 % Area
- Organic Impurities by HPLC: RRT 1.05 ([1]; 40° C./75% RH, 6 months): —
- Organic Impurities by HPLC: RRT 1.06 ([1]; 40° C./75% RH, 6 months): 0.08 % Area
- Purity by HPLC ([1]; 40° C./75% RH, 6 months): 98.8 % area
- Total Impurities ([1]; 40° C./75% RH, 6 months): 1.24 % area
- Water Content by KF ([1]; 40° C./75% RH, 6 months): 0.46 % w/w
- XRPD ([1]; 40° C./75% RH, 6 months): Crystalline
- Appearance ([1]; 40° C./75% RH, Initial): Pale
- Assay by HPLC (% w/w. as is) ([1]; 40° C./75% RH, Initial): 96.9 % w/w
- Organic Impurities by HPLC: RRT 0.83 ([1]; 40° C./75% RH, Initial): 0.06 % Area
- Organic Impurities by HPLC: RRT 0.97 ([1]; 40° C./75% RH, Initial): 0.55 % Area
- Organic Impurities by HPLC: RRT 0.99 ([1]; 40° C./75% RH, Initial): 0.62 % Area
- Organic Impurities by HPLC: RRT 1.05 ([1]; 40° C./75% RH, Initial): 0.15 % Area
- Organic Impurities by HPLC: RRT 1.06 ([1]; 40° C./75% RH, Initial): 0.11 % Area
- Purity by HPLC ([1]; 40° C./75% RH, Initial): 98.5 % area
- Total Impurities ([1]; 40° C./75% RH, Initial): 1.53 % area
- Water Content by KF ([1]; 40° C./75% RH, Initial): 0.56 % w/w
- XRPD ([1]; 40° C./75% RH, Initial): Crystalline
- gel formation (Gelling in aqueous media): does not form a gel
- Hygroscopicity [2]: Non-hygroscopic
- Hygroscopicity ([2]; listed as Form 1): non-hygroscopic
- solubility ([3]; FEDGAS biorelevant medium, pH 3, fassgf or other biorelevant, thermodynamic from solid, pH 3.0 (FEDGAS), late stage of stomach emptying, read-out: Solubility): 11300 µg/mL
- solubility ([3]; FEDGAS biorelevant medium, pH 4.5, fassgf or other biorelevant, thermodynamic from solid, pH 4.5 (FEDGAS), mid stage of stomach emptying, read-out: Solubility): 4350 µg/mL
- solubility ([3]; FEDGAS biorelevant medium, pH 6, fassgf or other biorelevant, thermodynamic from solid, pH 6.0 (FEDGAS), early stage of stomach emptying, read-out: Solubility): 2880 µg/mL
- solubility ([3]; FaSSGF biorelevant medium, pH 1.6, fassgf or other biorelevant, thermodynamic from solid, pH 1.6 (FaSSGF), Stomach after glass of water, tested in duplicate, read-out: Solubility): > 13400 µg/mL
- solubility ([3]; FaSSIF biorelevant medium, pH 6.5, fassif, thermodynamic from solid, pH 6.5 (FaSSIF), Upper intestine after a glass of water, read-out: Solubility): 230 µg/mL
- solubility ([3]; FeSSIF biorelevant medium, pH 5, fessif, thermodynamic from solid, pH 5.0 (FeSSIF), Upper intestine after a meal, read-out: Solubility): < 4 µg/mL
- solubility ([3]; pH 1.6 (FaSSGF), Stomach after glass of water, tested in duplicate): 11050 µg/mL
- pKa ([4]; first value listed): 6.46
- pKa ([4]; second value listed): 9.59
- pKa ([4]; third value listed): 12.1
SMILES: CN1CC[C@@H](c2c(O)cc(O)c3c(=O)cc(-c4ccc(C(F)(F)F)cc4Cl)oc23)[C@@H]1CO.O=C(O)CC(=O)O [Voruciclib Malonate, (2R,3S)-3-(2-(2-chloro-4-(trifluoromethyl)phenyl)-5,7-dihydroxy-4-oxo-4H-chromen-8-yl)-2-(hydroxymethyl)-1-methylpyrrolidin-1-ium-2-carboxyacetate]
